Experimental data taken from US20240009231A1, “Method for Pleurodesis and Delivery of Drugs to the Lung and Pleural Space” (University of Cincinnati, priority 2020, published 2024).

How the values were obtained:
lungs of mice = conditions: mouse, in vivo
C57BL/6J mice = conditions: mouse, in vivo
Experimental: Either hydroxyapatite microspheres (HAMs, Fluidinova) or talc was injected via the intrapleural (i.pl.) route into C57BL/6J mice. For the mice injected with HAMs, 4 mg/g mouse of HAM/300 μL saline/mice was used. For the mice injected with talc, 2 mg/g mouse of talc/300 μL saline/mice was used. The mice were euthanized at day 0, day 7, day 14 or day 28 and post-mortem assessments were performed. Effectiveness of pleurodesis was assessed by introducing air into the pleural space. Each lung was punctured percutaneously with a 20 G needle for 12 times for left and right lung (total 24 times) (transthoracic needle puncture). Then, a CT scan was taken to measure the volume of pneumothorax air space in the thoracic cavity (see FIGS. 1A and 1B).
In addition, paraffin-embedded lung sections were stained with H&E and Mason's trichrome reagent for microscopic evaluation of pleural fibrosis and pleural thickness. Clearance of particles was assessed by microCT (see FIGS. 2A and 2B). Macroscopic pleural adhesions were scored (see FIGS. 3A, 3B and 3C); pleural lavage cells were collected to assess OLMNGC (osteoclast-like multinucleated giant cells) formation, including cytology, fibrosis- and osteoclast-related gene and protein expression of tartrate-resistant acid phosphatase (TRAP), (CTSK), and calcitonin receptor (Calcr) antibody by rtPCR and immunohistochemistry

lung inflammation (lungs of mice): transient monocyte rich inflammation
pulmonary fibrosis (lungs of mice): no residual fibrosis
clearance of particles from the lungs (lungs of mice; inhaled or intranasal): cleared within a month
amount of residual particles in the thoracic cavity (C57BL/6J mice): decreased over time
clearance of particles (C57BL/6J mice): almost completely cleared
Substance: hydroxyapatite [HAMs]
